In US20240317735A1, “HYDROISOQUINOLINE OR HYDRONAPHTHYRIDINE COMPOUNDS FOR THE TREATMENT OF AUTOIMMUNE DISEASE” (Hoffmann-La Roche Inc., priority 2020, published 2024):

Experiments:
[1] = Human microsome stability assay; type: in vitro ADME; conditions: 1 μM test compound, 0.5 mg/mL liver microsomal protein, 37° C., pH 7.4
Method: The human microsomal stability assay is used for early assessment of metabolic stability of a test compound in human liver microsomes.
Human liver microsomes (Cat. NO.: 452117, Corning, USA; Cat. NO.: H2610, Xenotech, USA) were preincubated with test compound for 10 minutes at 37° C. in 100 mM potassium phosphate buffer, pH 7.4. The reactions were initiated by adding NADPH regenerating system. The final incubation mixtures contained 1 μM test compound, 0.5 mg/mL liver microsomal protein, 1 mM MgCl2, 1 mM NADP, 1 unit/mL isocitric dehydrogenase and 6 mM isocitric acid in 100 mM potassium phosphate buffer, pH 7.4. After incubation times of 0, 3, 6, 9, 15 and 30 minutes at 37° C., 300 μL of cold acetonitrile (including internal standard) was added to 100 μL incubation mixture to terminate the reaction. Following precipitation and centrifugation, the amount of compound remaining in the samples were determined by LC-MS/MS. Controls of no NADPH regenerating system at zero and 30 minutes were also prepared and analyzed.

TLR9 = molecular target: T1, TLR9 (Homo sapiens, UniProt Q9NR96); assay: HEK293-Blue-hTLR-9 cells assay (SEAP reporter, ODN2006 stimulation); type: cell-based; set-up: host or cells: HEK293 (HEK-Blue hTLR9); conditions: HEK293-Blue-hTLR9 cells, ODN2006, 20 hrs; read-out: HEK/hTLR9 IC50
T1 sequence (Q9NR96 26-1032): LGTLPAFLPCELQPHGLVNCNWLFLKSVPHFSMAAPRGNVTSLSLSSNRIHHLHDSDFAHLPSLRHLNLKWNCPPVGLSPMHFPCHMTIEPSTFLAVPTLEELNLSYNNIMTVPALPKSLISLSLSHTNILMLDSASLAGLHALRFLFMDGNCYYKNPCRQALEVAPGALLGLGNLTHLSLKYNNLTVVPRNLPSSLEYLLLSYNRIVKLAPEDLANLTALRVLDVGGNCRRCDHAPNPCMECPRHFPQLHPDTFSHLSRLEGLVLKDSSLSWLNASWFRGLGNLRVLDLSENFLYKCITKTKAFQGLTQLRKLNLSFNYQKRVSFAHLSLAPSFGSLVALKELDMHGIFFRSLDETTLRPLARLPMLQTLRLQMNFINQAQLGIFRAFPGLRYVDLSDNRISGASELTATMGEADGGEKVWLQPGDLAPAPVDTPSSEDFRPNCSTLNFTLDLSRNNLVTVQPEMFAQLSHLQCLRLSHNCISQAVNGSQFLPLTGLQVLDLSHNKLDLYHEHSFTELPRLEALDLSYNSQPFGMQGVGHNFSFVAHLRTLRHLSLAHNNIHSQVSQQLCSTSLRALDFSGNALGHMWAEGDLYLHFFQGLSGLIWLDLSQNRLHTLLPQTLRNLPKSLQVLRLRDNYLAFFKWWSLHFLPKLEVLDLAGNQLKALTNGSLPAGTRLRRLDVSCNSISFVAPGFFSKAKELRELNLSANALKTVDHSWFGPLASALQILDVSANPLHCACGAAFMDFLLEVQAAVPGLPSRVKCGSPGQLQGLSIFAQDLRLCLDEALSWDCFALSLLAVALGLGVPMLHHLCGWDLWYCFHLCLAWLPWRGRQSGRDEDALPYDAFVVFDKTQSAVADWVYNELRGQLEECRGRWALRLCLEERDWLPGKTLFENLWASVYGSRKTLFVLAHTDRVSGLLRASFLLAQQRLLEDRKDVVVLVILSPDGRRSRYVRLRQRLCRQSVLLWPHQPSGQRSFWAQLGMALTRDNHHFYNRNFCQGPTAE
Method: The following tests were carried out in order to determine the activity of the compounds of formula (I) and (Ia) in HEK293-Blue-hTLR-7/8/9 cells assay.
A stable HEK293-Blue-hTLR-9 cell line was purchased from InvivoGen (Cat. #: hkb-htlr9, San Diego, California, USA). These cells were originally designed for studying the stimulation of human TLR9 by monitoring the activation of NF-κB. A SEAP (secreted embryonic alkaline phosphatase) reporter gene was placed under the control of the IFN-β minimal promoter fused to five NF-κB and AP-1-binding sites. The SEAP was induced by activating NF-κB and AP-1 via stimulating HEK-Blue hTLR9 cells with TLR9 ligands. Therefore the reporter expression was declined by TLR9 antagonist under the stimulation of a ligand, such as ODN2006 (Cat. #: tlrl-2006-1, Invivogen, San Diego, California, USA), for incubation of 20 hrs. The cell culture supernatant SEAP reporter activity was determined using QUANTI-Blue™ kit (Cat. #: rep-qb1, Invivogen, San Diego, California, USA) at a wavelength of 640 nm, a detection medium that turns purple or blue in the presence of alkaline phosphatase.
HEK293-Blue-hTLR9 cells were incubated at a density of 250,000-450,000 cells/mL in a volume of 170 μL in a 96-well plate in Dulbecco's Modified Eagle's medium (DMEM) containing 4.5 g/L glucose, 50 U/mL penicillin, […], […], 2 mM L-glutamine, 10% (v/v) heat-inactivated fetal bovine serum with addition of 20 μL test compound in a serial dilution in the presence of final DMSO at 1% and 10 μL of 20 uM ODN2006 in above DMEM, perform incubation under 37° C. in a CO2 incubator for 20 hrs. Then 20 μL of the supernatant from each well was incubated with 180 μL Quanti-blue substrate solution at 37° C. for 2 h and the absorbance was read at 620˜655 nm using a spectrophotometer.
The signaling pathway that TLR9 activation leads to downstream NF-κB activation has been widely accepted, and therefore similar reporter assay was modified for evaluating TLR9 antagonist.

**Q.** For `Cc1cc(N2Cc3cnc(N4CCNCC4)cc3[C@@H](C)C2)c2cnn(C)c2n1` [Example 74, (4R)-2-(1,6-dimethylpyrazolo[3,4-b]pyridin-4-yl)-4-methyl-6-piperazin-1-yl-3,4-dihydro-1H-2,7-naphthyridine], which “Clearance of Human microsome” value [1] is on record?
**A.** 9.2 mL/min/kg

**Q.** And the IC50 (TLR9)?
**A.** 165 nM

**Q.** Which “Clearance of Human microsome” value [1] does the source give for `C[C@H]1CN(c2ccnc3c2cnn3C)Cc2ccc(N3CCC(N4CC[C@@H](N)[C@H](O)C4)CC3)cc21` [Example 29, trans-4-amino-1-[1-[(4R)-4-methyl-2-(1-methylpyrazolo[3,4-b]pyridin-4-yl)-3,4-dihydro-1H-isoquinolin-6-yl]-4-piperidyl]piperidin-3-ol] here?
**A.** 9.7 mL/min/kg

**Q.** What about the IC50 (TLR9) of the same compound?
**A.** 106 nM

**Q.** Which “Clearance of Human microsome” value [1] does the source give for `C[C@H]1CN(c2ccnc3c2cnn3C)Cc2ccc(N3CCC(O)(CN(C)C)CC3)cc21` [Example 13, 4-[(dimethylamino)methyl]-1-[(4R)-4-methyl-2-(1-methylpyrazolo[3,4-b]pyridin-4-yl)-3,4-dihydro-1H-isoquinolin-6-yl]piperidin-4-ol] here?
**A.** 6.2 mL/min/kg

**Q.** What about the IC50 (TLR9) of the same compound?
**A.** 399 nM

**Q.** Which results are given for `Cc1cc(N2Cc3ccc(N4C[C@@H](F)[C@@H](N)C4)nc3[C@@H](C)C2)c2cnn(C)c2n1` [Example 69, (3S,4R)-4-fluoro-1-[(8S)-6-(1,6-dimethylpyrazolo[3,4-b]pyridin-4-yl)-8-methyl-7,8-dihydro-5H-1,6-naphthyridin-2-yl]pyrrolidin-3-amine]?
**A.** Clearance of Human microsome [1]: 8.1 mL/min/kg; IC50 (TLR9): 488 nM

**Q.** Which results are given for `Cc1cc(N2Cc3ccc(N4C[C@@H](N)[C@H](O)C4)cc3[C@@H](C)C2)c2cnn(C)c2n1` [Example 47, trans-4-amino-1-[(4R)-2-(1,6-dimethylpyrazolo[3,4-b]pyridin-4-yl)-4-methyl-3,4-dihydro-1H-isoquinolin-6-yl]pyrrolidin-3-ol]?
**A.** Clearance of Human microsome [1]: 6.2 mL/min/kg; IC50 (TLR9): 230 nM

**Q.** For `C[C@H]1CN(c2ccnc3c2cnn3C)Cc2ccc(N3CC4(CCNCC4)OC3=O)cc21` [Example 26, 3-[(4R)-4-methyl-2-(1-methylpyrazolo[3,4-b]pyridin-4-yl)-3,4-dihydro-1H-isoquinolin-6-yl]-1-oxa-3,8-diazaspiro[4.5]decan-2-one], which “Clearance of Human microsome” value [1] is on record?
**A.** 6.2 mL/min/kg

**Q.** And the IC50 (TLR9)?
**A.** 73 nM

**Q.** With `C[C@H]1CN(c2ccnc3c2cnn3C)Cc2ccc(O[C@@H]3C[C@H]4CNCCN4C3)cc21` [Example 42, (4R)-4-methyl-2-(1-methylpyrazolo[3,4-b]pyridin-4-yl)-6-[[(7R,8aS)-1,2,3,4,6,7,8,8a-octahydropyrrolo[1,2-a]pyrazin-7-yl]oxy]-3,4-dihydro-1H-isoquinoline] as the compound, how does the “Clearance of Human microsome” value [1] read?
**A.** 6.8 mL/min/kg

**Q.** What about the IC50 (TLR9) of the same compound?
**A.** 398 nM

**Q.** For `C[C@H]1CN(c2ccnc3c2cnn3C)Cc2ccc(N3CC4(CCNC4)OC3=O)cc21` (stereo partly drawn) [Example 35, 3-[(4R)-4-methyl-2-(1-methylpyrazolo[3,4-b]pyridin-4-yl)-3,4-dihydro-1H-isoquinolin-6-yl]-1-oxa-3,7-diazaspiro[4.4]nonan-2-one], which “Clearance of Human microsome” value [1] is on record?
**A.** 8.4 mL/min/kg

**Q.** What about the IC50 (TLR9) of the same compound?
**A.** 182 nM

**Q.** Which “Clearance of Human microsome” value [1] does the source give for `C[C@H]1CN(c2ccnc3c2cnn3C)Cc2ccc(N3CCN[C@H](CO)C3)cc21` [Example 51, [(2S)-4-[(4R)-4-methyl-2-(1-methylpyrazolo[3,4-b]pyridin-4-yl)-3,4-dihydro-1H-isoquinolin-6-yl]piperazin-2-yl]methanol] here?
**A.** 7.7 mL/min/kg

**Q.** What about the IC50 (TLR9) of the same compound?
**A.** 365 nM

**Q.** What does the source list for `C[C@H]1CN(c2ccnc3c2cnn3C)Cc2ccc(N3CC4(CNC4)CC3=O)cc21` [Example 34, 6-[(4R)-4-methyl-2-(1-methylpyrazolo[3,4-b]pyridin-4-yl)-3,4-dihydro-1H-isoquinolin-6-yl]-2,6-diazaspiro[3.4]octan-7-one]?
**A.** Clearance of Human microsome [1]: 10.1 mL/min/kg; IC50 (TLR9): 198 nM

**Q.** For `Cn1ncc2c(N3CCc4cc(N5CCNCC5)ccc4C3)ccnc21` [Example 3, 2-(1-methylpyrazolo[3,4-b]pyridin-4-yl)-6-piperazin-1-yl-3,4-dihydro-1H-isoquinoline], which “Clearance of Human microsome” value [1] is on record?
**A.** 9.5 mL/min/kg

**Q.** What about the IC50 (TLR9) of the same compound?
**A.** 185 nM
